Several values for one entry are separate records, joined by “and”; a condition that tells them apart may be missing. Equal values may be shown once.
Assay: HFrEF study Part 2 (MAD Cohorts A-D): plasma pharmacokinetics
Type: in vivo, human
Conditions: for AUC_TAU: steady state
Description: This was a randomized, parallel-group, DB, placebo-controlled, adaptive design, sequential ascending (oral) multiple-close study in stable patients with heart failure. Four MAD Cohorts (A, B, C, D) were enrolled (FIG. 5B). An SRC reviewed results from each cohort and determined the close and confirmed initial sample size for the subsequent cohort. Additionally, the first 3 patients in each cohort had LVEF≥25%; the SRC reviewed preliminary safety data from these patients and decided whether to open cohort enrollment to patients with LVEF<25%.
After Screening and qualification, patients were confined to a clinical testing facility from Day 1 (Check-in) to Day 11. Each patient initially received placebo BID for 2 days (Days 1 and 2) in single-blinded manner (“run-in” during acclimatization to confinement in the Clinical Testing Unit) prior to receiving the randomized DB study drug treatment on Day 3. All patients then received either placebo or active Compound I for 7 days (Days 3 through 9), with a follow-up period with patients discharged from the unit on Day 11. A final follow-up clinic visit was conducted on Day 16. More than one patient could be closed in a cohort at the same time or during the same week depending on administrative issues, i.e., capacity and scheduling.
Patients were closed twice daily (every 12 hours). Doses could occur±2 hours from scheduled dosing times as long as closes were separated by at least 10 hours and by no more than 14 hours. The exception to the twice daily dosing was on Day 9 (last dose of randomized DB study drug treatment). On Day 9, a single morning close was administered.
During the study, multiple evaluations were performed that included: serial TTE assessments (11-14 TTEs per patient on Days 1, 2, 3, 4, 7, 9, 10 and 11); PK sampling (PK sample collected concomitantly with every post-randomization echocardiogram); ECGs (on Days 2, 3, 4, 7, 9, 10, 11 and 16); troponin (collected concomitantly with every post-randomization ECG); and safety laboratory assessments. Confined patients underwent continuous telemetry. Holter monitoring was performed in all patients at baseline (Days 1-2) and at the end of double-blind treatment (Days 7-9). Vital signs were collected daily.
Study medication consisted of Compound I 5 mg tablets, 25 mg tablets, 100 mg tablets, or matching placebo tablets. In Part 1 (SAD), Compound I or placebo was administered after an overnight fast (at least 6 hours), while in Part 2 (MAD), Compound I was administered after a 2 hour fast (Cohort A) or with food (Cohorts B, C, and D). The close was ingested with a minimum of 240 mL of water, but more water was ingested as needed. The entire close was administered over a period of up to 15 minutes. The time of close used to determine future assessments was the time the last tablet was taken. In the cohorts for Part 2 (MAD), a BID regimen was used.
In Part 2 (MAD), Cohort A patients fasted for 2 hours before and 2 hours after dosing. For example, if morning dosing occurred at 8 AM, patients could have a snack at 6 AM and a full breakfast at 10 AM. If afternoon dosing occurred at 8 PM, patients could have dinner at 6 PM and a snack at 10 PM. […] Cohort B, C, and D patients ingested food with each close.

[1] = Cohort A + C (n = 14), 75 mg BID
[2] = MAD Cohort A, 75 mg BID (4 h fasting), Mean
[3] = MAD Cohort A, 75 mg BID (4 h fasting), individual subjects
[4] = MAD Cohort B, 50 mg BID (with food), Mean
[5] = MAD Cohort B, 50 mg BID (with food), individual subjects
[6] = MAD Cohort C, 75 mg BID (with food), Mean
[7] = MAD Cohort C, 75 mg BID (with food), individual subjects

Cn1cc(S(=O)(=O)[C@@](C)(F)C2CCN(C(=O)Nc3ccon3)CC2)c(C(F)F)n1 [Compound I, (R)-4-(1-((3-(difluoromethyl)-1-methyl-1H-pyrazol-4-yl)sulfonyl)-1-fluoroethyl)-N-(isoxazol-3-yl)piperidine-1-carboxamide]
Post-dose maximum concentration, steady-state (Day 9) plasma [1]: 3862 (27.7%) ng/mL | Pre-dose concentration, steady-state (Day 9) plasma [1]: 2930 (36.8%) ng/mL | time to steady-state plasma concentrations (Cohort A, 75 mg twice daily, fasted): approximately 3 days | Post-dose maximum concentration, steady-state (Day 9) plasma (Cohort B (n = 8), 50 mg BID): 2735 (17.5%) ng/mL | Pre-dose concentration, steady-state (Day 9) plasma (Cohort B (n = 8), 50 mg BID): 2096 (20.0%) ng/mL | time to steady-state plasma concentrations (Cohort B, 50 mg twice daily with food): approximately 4 days | Post-dose maximum concentration, steady-state (Day 9) plasma (Cohort D (n = 6), 100 mg BID): 5560 (22.8%) ng/mL | Pre-dose concentration, steady-state (Day 9) plasma (Cohort D (n = 6), 100 mg BID): 4694 (25.5%) ng/mL | Accumulation Ratio AUC tau [2]: 3.74 | Accumulation Ratio Cmax [2]: 3.53 | Accumulation_Index [2]: 3.11 | Cavg, ss [2]: 3420 ng/mL | Cmin, SS [2]: 2758 ng/mL | AUCtau, Day 1 [3]: 12360 ng·h/mL and 8025 ng·h/mL and 9501 ng·h/mL and 11570 ng·h/mL | Accumulation Ratio AUC tau [3]: 4.37 and 3.96 and 3.15* and 2.80 and 4.27 and 3.31 | Accumulation Ratio Cmax [3]: 4.32 and 3.46 and 2.51* and 2.80 and 4.06 and 2.99 | Accumulation_Index [3]: 3.82 and 3.89 and 2.79* and 2.21 and 3.00 and 2.61 | Cavg, ss [3]: 3846 ng/mL and 4079 ng/mL and 2108* ng/mL and 2215 ng/mL and 3774 ng/mL and 3188 ng/mL | Cmax, Day 1 [3]: 1360 ng/mL and 958 ng/mL and 981 ng/mL and 1100 ng/mL and 1250 ng/mL | Cmax, SS [3]: 4710 ng/mL and 2400* ng/mL and 2750 ng/mL and 4470 ng/mL and 3740 ng/mL | Cmin, SS [3]: 3050 ng/mL and 3510 ng/mL and 1450* ng/mL and 1740 ng/mL and 2880 ng/mL and 2610 ng/mL | t1/2, λz [3]: 27.41 hr and 28.02 hr and 18.78* hr and 13.84 hr and 20.55 hr and 17.21 hr | AUC_TAU [3]: 48950 hr*ng/mL and 25290* hr*ng/mL and 26580 hr*ng/mL and 45290 hr*ng/mL and 38250 hr*ng/mL | Accumulation Ratio AUC tau [4]: 4.09 | Accumulation Ratio Cmax [4]: 3.57 | Accumulation_Index [4]: 3.55 | Cavg, ss [4]: 2336 ng/mL | Cmin, SS [4]: 1989 ng/mL | AUCtau, Day 1 [5]: 5050 ng·h/mL and 6754 ng·h/mL and 8138 ng·h/mL and 8855 ng·h/mL and 7249 ng·h/mL and 6347 ng·h/mL and 8620 ng·h/mL | Accumulation Ratio AUC tau [5]: 4.00 and 6.37 and 5.22 and 3.26 and 4.07 and 3.30 and 3.63 and 2.88 | Accumulation Ratio Cmax [5]: 3.16 and 5.33 and 4.78 and 3.08 and 4.02 and 2.64 and 3.05 and 2.51 | Accumulation_Index [5]: 3.63 and 5.03 and 4.46 and 2.93 and 3.51 and 2.42 and 3.20 (2×) and 4.23* | Cavg, ss [5]: 2478 ng/mL and 2681 ng/mL and 2940 ng/mL and 2213 ng/mL and 3002 ng/mL and 1991 ng/mL and 1919 ng/mL and 2070 ng/mL and 1725* ng/mL | Cmax, Day 1 [5]: 548 ng/mL and 674 ng/mL and 830 ng/mL and 891 ng/mL and 901 ng/mL and 696 ng/mL and 974 ng/mL | Cmax, SS [5]: 2920 ng/mL and 3220 ng/mL and 2560 ng/mL and 3580 ng/mL and 2380 ng/mL and 2120 ng/mL and 2440 ng/mL and 2060* ng/mL | Cmin, SS [5]: 1900 ng/mL and 2380 ng/mL and 2640 ng/mL and 1810 ng/mL and 2370 ng/mL and 1440 ng/mL and 1720 ng/mL and 1650 ng/mL and 1320* ng/mL | t1/2, λz [5]: 25.81 hr and 37.48 hr and 32.77 hr and 19.93 hr and 24.77 hr and 15.57 hr and 22.23 hr and 22.21 hr and 30.87* hr | AUC_TAU [5]: 32170 hr*ng/mL and 35280 hr*ng/mL and 26560 hr*ng/mL and 36030 hr*ng/mL and 23890 hr*ng/mL and 23030 hr*ng/mL and 24840 hr*ng/mL and 20700* hr*ng/mL | Accumulation Ratio AUC tau [6]: 3.99 | Accumulation Ratio Cmax [6]: 3.28 | Accumulation_Index [6]: 3.18 | Cavg, ss [6]: 3357 ng/mL | Cmin, SS [6]: 2812 ng/mL | AUCtau, Day 1 [7]: 13270 ng·h/mL and 8280 ng·h/mL and 10790 ng·h/mL and 9731 ng·h/mL and 6976 ng·h/mL and 9166 ng·h/mL and 14840 ng·h/mL and 11840 ng·h/mL | Accumulation Ratio AUC tau [7]: 2.44 and 1.90 and 3.48 and 4.61 and 7.62 and 3.88 and 2.59 and 4.85 and 4.53 | Accumulation Ratio Cmax [7]: 2.17 and 1.80 and 3.20 and 4.06 and 4.80 and 2.80 and 2.38 and 4.63 and 3.68 | Accumulation_Index [7]: 2.18 and 2.39 and 2.99 and 3.31 and 5.51 and 2.43 and 2.20 and 4.17 and 3.42 | Cavg, ss [7]: 2695 ng/mL and 1308 ng/mL and 3126 ng/mL and 3738 ng/mL and 4432 ng/mL and 2963 ng/mL and 3206 ng/mL and 4267 ng/mL and 4474 ng/mL

— patent US20220265629A1, “TREATMENT OF SYSTOLIC DYSFUNCTION AND HEART FAILURE WITH REDUCED EJECTION FRACTION WITH THE COMPOUND (R)-4-(1-((3-(DIFLUOROMETHYL)-1-METHYL-1H-PYRAZOL-4-YL)SULFONYL)-1-FLUOROETHYL)-N-(ISOXAZOL-3-YL)PIPERIDINE-1-CARBOXAMIDE” (MyoKardia, Inc., priority 2019, published 2022)
